System: angiotensin converting enzyme
Assay: In-vivo ACE inhibitory activity: inhibition of the pressor response to i.v. angiotensin I in anesthetised rats
Details: for ID50 (i.v.): intravenous dose required to inhibit the pressor response to i.v. angiotensin I by 50% in anesthetised rats; for ID50 (oral): oral dose required to inhibit the pressor response to i.v. angiotensin I by 50% in anesthetised rats
Text: As mentioned before the compounds of this invention show valuable antihypertensive activity. It can be concluded from animal tests that these compounds have high angiotensin converting enzyme inhibitory activity (ACE inhibitory activity). The in-vivo ACE inhibitory activity of Compound A: 1- [N-[1(S)-carboxy-3- [4-(4-chloro-3-sulfamoyl benzamido) phenyl] propyl](S)-alanyl]cis,syn-octahydroindole-2-(S)-carboxylic acid Compound B: 1-[N-[1(S)-carboxy-3-[4-(4-chloro-3-N-methyl-sulfamoyl benzamido)phenyl]propyl]-(S)-alanyl]cis, syn-octahydroindole-2(S)-carboxylic acid is as follows: […]

| Structure (SMILES) | ID50 (i.v.) | ID50 (oral) |
| --- | --- | --- |
| C[C@H](N[C@@H](CCc1ccc(NC(=O)c2ccc(Cl)c(S(N)(=O)=O)c2)cc1)C(=O)O)C(=O)N1[C@H](C(=O)O)C[C@@H]2CCCC[C@@H]21 [Compound A, 1-[N-[1(S)-carboxy-3-[4-(4-chloro-3-sulfamoylbenzamido)phenyl]propyl](S)-alanyl]cis,syn-octahydroindole-2-(S)-carboxylic acid] | 0.036 mg/kg | 3 mg/kg |
| CNS(=O)(=O)c1cc(C(=O)Nc2ccc(CC[C@H](N[C@@H](C)C(=O)N3[C@H](C(=O)O)C[C@@H]4CCCC[C@@H]43)C(=O)O)cc2)ccc1Cl [Compound B, 1-[N-[1(S)-carboxy-3-[4-(4-chloro-3-N-methyl-sulfamoylbenzamido)phenyl]propyl]-(S)-alanyl]cis, syn-octahydroindole-2(S)-carboxylic acid] | 0.033 mg/kg | 3 mg/kg |

From patent publication EP0236307B1, “ANTIHYPERTENSIVE AGENTS, PHARMACEUTICAL COMPOSITIONS CONTAINING THEM AND PROCESSES FOR THE PREPARATION OF THE AGENTS AND COMPOSITIONS” (SCHERING CORPORATION, priority 1985, dated 1987)
